Test [1] concerns the target T1, human NOP (Homo sapiens, UniProt P41146). The test can be described thus: Calcium mobilization assay, CHO cells with NOP receptor and chimeric G protein. It counts as cell-based. Also on record: expressed in transfected cells. The settings on record: for EC50: CHO cells coexpressing human NOP and Gαqi5, Fluo-4, 37 °C, mean (CL95%), N = 5 experiments in duplicate, read-out: Ca^2+ mobilization pEC50 (CL95%) (converted); for Ca^2+ mobilization E max ± sem: CHO cells coexpressing human NOP and Gαqi5, maximum change in percentage over baseline fluorescence, mean ± sem, N = 5 in duplicate. On the procedure: Chinese hamster ovary (CHO) cells stably coexpressing the human NOP, μ, or κ opioid receptors and the Gαqi5 protein or the human δ and the GαqG66Di5 protein were used in this assay. , Cells were cultured in DMEM/F-12 (1:1) medium supplemented with 10% FBS, 2 mM L-glutamine, […], 100 IU/mL penicillin, and 100 IU/mL streptomycin. Cells were maintained at 37 °C in a humidified atmosphere with 5% CO2 and were seeded at 50 000 cells/well into 96-well black, clear-bottom plates 24 h before test. Loading for 45 min with a solution consisting of HBSS supplemented with 2.5 mM probenecid, 3 μM Fluo-4 AM, and 0.01% pluronic acid ensures the calcium-sensitive dye (Fluo-4) reaches the needed concentration inside the cell, while the exchange of the solution with 100 μL/well of buffer consisting of HBSS with 20 mM HEPES, 2.5 mM probenecid, and 500 μM Brilliant Black allows for fluorescence background to decrease. Serial dilutions of ligands were prepared in HBSS buffer with 20 mM HEPES and 0.02% bovine serum albumin (BSA) to minimize the ligands’ stickiness to plasticware. The automated microplate reader FlexStation II (Molecular Devices, CA, US) was employed at 37 °C to detect changes in fluorescence intensity. The effects of all compounds were expressed as the maximum change in percentage over the baseline fluorescence measured in samples treated with vehicles.
(§1) Concentration-response curves to agonists were analyzed by a four-parameter logistic nonlinear regression model: Effect = baseline + (E max – baseline)/(1 + 10^((logEC50–log[ligand])slope)). […] Experimental data were expressed as mean ± sem of at least 5 experiments. Potency values were expressed as the mean and CL95%. In vitro E max values were analyzed by one-way ANOVA, while in vivo latency data were evaluated by one-way ANOVA followed by Dunnett’s post hoc test. The proportion of mice losing the righting reflex was compared by Fisher’s exact test performed on raw data. GraphPad Prism 10.0 software was used for all of the analyses. The terminology employed is consistent with the International Union of Basic and Clinical Pharmacology (IUPHAR) recommendations. ,
Background: A change in cytosolic calcium serves as a functional read-out for many receptors and channels.

The target in test [2] is T1, human NOP. Put plainly: NOP receptor–G protein interaction BRET assay. It counts as biochemical. Also noted: expressed in transfected cells; host or cells: membranes of HEK293 cells stably coexpressing NOP-RLuc and Gβ1-RGFP. The settings on record: N = 5 experiments in duplicate; for EC50: membranes from HEK293 cells coexpressing NOP-RLuc and Gβ1-RGFP, room temperature, mean (CL95%), read-out: NOP–G protein interaction pEC50 (CL95%) (converted); for NOP–G protein interaction E max ± sem: effects normalized to N/OFQ-NH2 (E max = 1), mean ± sem. On the procedure:
A BRET interaction assay was used, as previously detailed in ref , to study the propensity of ligands to evoke interaction between the NOP receptor and to G protein. Membranes taken from HEK293 cells stably coexpressing the fusoproteins NOP-RLuc and Gβ1-RGFP were used. Such cells were grown in DMEM medium supplemented with 10% FBS, 2 mM L-glutamine, […] G418, […] hygromycin B, 100 IU/mL penicillin, and 100 IU/mL streptomycin in a humidified atmosphere with 5% CO2 at 37 °C. Cell membranes were thawed and resuspended in PBS supplemented with 0.01% BSA before the assay, and an amount of 3 μg of total protein was dispensed in each of the 96 wells together with 2 μM Prolume Purple Coelenterazine. All experiments were carried out at room temperature. Ligands were added, and averaged BRET ratios from 10 min measurements were computed. BRET ratios were computed as counts per second (CPS) obtained on a Victor Nivo (PerkinElmer) with 405 (10) nm and 510 (30) nm bandpass filters. Vehicles’ BRET ratios were derived from light passed through 510 divided by that passed through 405 filters. Vehicles BRET values were subtracted from all computations, and data sets were normalized as a fraction of N/OFQ maximal effects.
as §1

Test [3] addresses murine NOP receptor (mouse (endogenous in mouse vas deferens)) (UniProt P35377).
The next test addresses NOP-RLuc (UniProt P41146).
Test [4] deals with human nociceptin/orphanin FQ (N/OFQ) peptide receptor (human) (UniProt P41146).
human nociceptin/orphanin FQ (N/OFQ) peptide receptor (human), sequence (P41146 whole entry): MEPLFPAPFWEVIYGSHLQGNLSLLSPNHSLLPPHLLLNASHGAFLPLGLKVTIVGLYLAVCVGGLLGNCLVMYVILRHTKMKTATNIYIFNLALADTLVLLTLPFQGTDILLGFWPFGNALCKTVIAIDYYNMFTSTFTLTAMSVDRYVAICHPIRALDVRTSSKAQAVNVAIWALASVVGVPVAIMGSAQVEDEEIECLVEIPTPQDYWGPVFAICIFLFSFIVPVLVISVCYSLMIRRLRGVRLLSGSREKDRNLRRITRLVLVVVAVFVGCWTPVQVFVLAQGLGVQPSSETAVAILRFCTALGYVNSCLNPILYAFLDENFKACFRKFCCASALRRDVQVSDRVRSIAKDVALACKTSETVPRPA

Bridge positions count the residues as written; N and C are the ends. Ends that are not written are not given here. Peptide text beside a SMILES is read from it. I, II: the chains in the order shown.

murine NOP receptor (mouse (endogenous in mouse vas deferens)), sequence (P35377 whole entry): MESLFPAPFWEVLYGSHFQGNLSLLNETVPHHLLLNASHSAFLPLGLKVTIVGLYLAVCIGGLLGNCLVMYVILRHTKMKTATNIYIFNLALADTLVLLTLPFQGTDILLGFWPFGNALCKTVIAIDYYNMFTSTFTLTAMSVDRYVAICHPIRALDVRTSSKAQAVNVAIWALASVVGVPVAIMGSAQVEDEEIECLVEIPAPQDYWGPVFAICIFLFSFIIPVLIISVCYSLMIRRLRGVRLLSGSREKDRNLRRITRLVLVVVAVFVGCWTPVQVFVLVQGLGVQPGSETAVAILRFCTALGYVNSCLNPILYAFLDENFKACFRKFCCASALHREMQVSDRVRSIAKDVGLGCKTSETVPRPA
T1 sequence (P41146 whole entry): as the sequence (P41146 whole entry) above
NOP-RLuc, sequence (P41146 whole entry): as above

With `CC(C)C[C@H](NC(=O)[C@H](CCCCN)NC(=O)[C@H](CCCNC(=N)N)NC(=O)[C@H](C)NC(=O)[C@H](CO)NC(=O)[C@H](CSSC[C@H](NC(=O)[C@H](CCCNC(=N)N)NC(=O)[C@H](C)NC(=O)CNC(=O)[C@@H](NC(=O)[C@H](Cc1ccccc1)NC(=O)CNC(=O)CNC(=O)[C@@H](N)Cc1ccccc1)[C@@H](C)O)C(=O)N[C@@H](CO)C(=O)N[C@@H](C)C(=O)N[C@@H](CCCNC(=N)N)C(=O)N[C@@H](CCCCN)C(=O)N[C@@H](CC(C)C)C(=O)N[C@@H](C)C(=O)N[C@@H](CC(N)=O)C(=O)N[C@@H](CCC(N)=O)C(N)=O)NC(=O)[C@H](CCCNC(=N)N)NC(=O)[C@H](C)NC(=O)CNC(=O)[C@@H](NC(=O)[C@H](Cc1ccccc1)NC(=O)CNC(=O)CNC(=O)[C@@H](N)Cc1ccccc1)[C@@H](C)O)C(=O)N[C@@H](C)C(=O)N[C@@H](CC(N)=O)C(=O)N[C@@H](CCC(N)=O)C(N)=O` [1c, [[Cys^9]N/OFQ-NH2]2] (I: H-FGGFTGARCSARKLANQ-NH2 / II: H-FGGFTGARCSARKLANQ-NH2; disulfide I:9-II:9), at human NOP [1], the EC50 was 5.01 nM and the “Ca^2+ mobilization E max ± sem” value stood at 289 ± 18 % over the baseline. In addition, the EC50 at human NOP [2] was 1.35 nM.

Turning to `CC(C)C[C@H](NC(=O)[C@H](CCCCN)NC(=O)[C@H](CCCNC(=N)N)NC(=O)[C@H](C)NC(=O)[C@H](CSSC[C@H](NC(=O)[C@H](CCCCN)NC(=O)[C@H](CCCNC(=N)N)NC(=O)[C@H](C)NC(=O)CNC(=O)[C@@H](NC(=O)[C@H](Cc1ccccc1)NC(=O)CNC(=O)CNC(=O)[C@@H](N)Cc1ccccc1)[C@@H](C)O)C(=O)N[C@@H](C)C(=O)N[C@@H](CCCNC(=N)N)C(=O)N[C@@H](CCCCN)C(=O)N[C@@H](CC(C)C)C(=O)N[C@@H](C)C(=O)N[C@@H](CC(N)=O)C(=O)N[C@@H](CCC(N)=O)C(N)=O)NC(=O)[C@H](CCCCN)NC(=O)[C@H](CCCNC(=N)N)NC(=O)[C@H](C)NC(=O)CNC(=O)[C@@H](NC(=O)[C@H](Cc1ccccc1)NC(=O)CNC(=O)CNC(=O)[C@@H](N)Cc1ccccc1)[C@@H](C)O)C(=O)N[C@@H](C)C(=O)N[C@@H](CC(N)=O)C(=O)N[C@@H](CCC(N)=O)C(N)=O` [1d, [[Cys^10]N/OFQ-NH2]2] (I: H-FGGFTGARKCARKLANQ-NH2 / II: H-FGGFTGARKCARKLANQ-NH2; disulfide I:10-II:10), the results for the EC50 on human NOP [1] and at human NOP [2] were 1.91 nM and 0.141 nM, respectively. Moreover, on human NOP [1], the “Ca^2+ mobilization E max ± sem” value worked out at 305 ± 42 % over the baseline.

For `CC(C)C[C@H](NC(=O)[C@H](CCCCN)NC(=O)[C@H](CSSC[C@H](NC(=O)[C@H](C)NC(=O)[C@H](CO)NC(=O)[C@H](CCCCN)NC(=O)[C@H](CCCNC(=N)N)NC(=O)[C@H](C)NC(=O)CNC(=O)[C@@H](NC(=O)[C@H](Cc1ccccc1)NC(=O)CNC(=O)CNC(=O)[C@@H](N)Cc1ccccc1)[C@@H](C)O)C(=O)N[C@@H](CCCCN)C(=O)N[C@@H](CC(C)C)C(=O)N[C@@H](C)C(=O)N[C@@H](CC(N)=O)C(=O)N[C@@H](CCC(N)=O)C(N)=O)NC(=O)[C@H](C)NC(=O)[C@H](CO)NC(=O)[C@H](CCCCN)NC(=O)[C@H](CCCNC(=N)N)NC(=O)[C@H](C)NC(=O)CNC(=O)[C@@H](NC(=O)[C@H](Cc1ccccc1)NC(=O)CNC(=O)CNC(=O)[C@@H](N)Cc1ccccc1)[C@@H](C)O)C(=O)N[C@@H](C)C(=O)N[C@@H](CC(N)=O)C(=O)N[C@@H](CCC(N)=O)C(N)=O` [1f, [[Cys^12]N/OFQ-NH2]2] (I: H-FGGFTGARKSACKLANQ-NH2 / II: H-FGGFTGARKSACKLANQ-NH2; disulfide I:12-II:12), on human NOP [1], the EC50 is 3.02 nM and the “Ca^2+ mobilization E max ± sem” value was 346 ± 19 % over the baseline. For the same molecule, at human NOP [2], the “NOP–G protein interaction E max ± sem” value came out at 1.07 ± 0.12 and the EC50 is 1.26 nM.

As to `CC(C)C[C@H](NC(=O)[C@H](CSSC[C@H](NC(=O)[C@H](CCCNC(=N)N)NC(=O)[C@H](C)NC(=O)[C@H](CO)NC(=O)[C@H](CCCCN)NC(=O)[C@H](CCCNC(=N)N)NC(=O)[C@H](C)NC(=O)CNC(=O)[C@@H](NC(=O)[C@H](Cc1ccccc1)NC(=O)CNC(=O)CNC(=O)[C@@H](N)Cc1ccccc1)[C@@H](C)O)C(=O)N[C@@H](CC(C)C)C(=O)N[C@@H](C)C(=O)N[C@@H](CC(N)=O)C(=O)N[C@@H](CCC(N)=O)C(N)=O)NC(=O)[C@H](CCCNC(=N)N)NC(=O)[C@H](C)NC(=O)[C@H](CO)NC(=O)[C@H](CCCCN)NC(=O)[C@H](CCCNC(=N)N)NC(=O)[C@H](C)NC(=O)CNC(=O)[C@@H](NC(=O)[C@H](Cc1ccccc1)NC(=O)CNC(=O)CNC(=O)[C@@H](N)Cc1ccccc1)[C@@H](C)O)C(=O)N[C@@H](C)C(=O)N[C@@H](CC(N)=O)C(=O)N[C@@H](CCC(N)=O)C(N)=O` [1g, [[Cys^13]N/OFQ-NH2]2] (I: H-FGGFTGARKSARCLANQ-NH2 / II: H-FGGFTGARKSARCLANQ-NH2; disulfide I:13-II:13), on human NOP [1], the EC50 was 1.62 nM and the “Ca^2+ mobilization E max ± sem” value was determined as 247 ± 39 % over the baseline. For the same molecule, the EC50 at human NOP [2] was 0.302 nM.

Consider `CC(C)C[C@H](NC(=O)[C@H](CCCCN)NC(=O)[C@H](CCCNC(=N)N)NC(=O)[C@H](C)NC(=O)[C@H](CO)NC(=O)[C@H](CCCCN)NC(=O)[C@H](CCCNC(=N)N)NC(=O)[C@H](C)NC(=O)CNC(=O)[C@@H](NC(=O)[C@H](Cc1ccccc1)NC(=O)CNC(=O)CNC(=O)[C@@H](N)Cc1ccccc1)[C@@H](C)O)C(=O)N[C@@H](C)C(=O)N[C@@H](CSSC[C@H](NC(=O)[C@H](C)NC(=O)[C@H](CC(C)C)NC(=O)[C@H](CCCCN)NC(=O)[C@H](CCCNC(=N)N)NC(=O)[C@H](C)NC(=O)[C@H](CO)NC(=O)[C@H](CCCCN)NC(=O)[C@H](CCCNC(=N)N)NC(=O)[C@H](C)NC(=O)CNC(=O)[C@@H](NC(=O)[C@H](Cc1ccccc1)NC(=O)CNC(=O)CNC(=O)[C@@H](N)Cc1ccccc1)[C@@H](C)O)C(=O)N[C@@H](CCC(N)=O)C(N)=O)C(=O)N[C@@H](CCC(N)=O)C(N)=O` [1j, [[Cys^16]N/OFQ-NH2]2] (I: H-FGGFTGARKSARKLACQ-NH2 / II: H-FGGFTGARKSARKLACQ-NH2; disulfide I:16-II:16), for which, at human NOP [1], the EC50 is 1.38 nM and the “Ca^2+ mobilization E max ± sem” value is on record as 312 ± 38 % over the baseline. In addition, on human NOP [2], the “NOP–G protein interaction E max ± sem” value is given as 0.98 ± 0.02 and the EC50 was 0.174 nM.

With nociceptin/orphanin FQ (peptide), in test [3], the maximal inhibition of electrically induced contractions of the mouse vas deferens, NOP(+/+) tissues turned out to be 71% and the potency (pEC50), inhibition of electrically induced contractions of the mouse vas deferens, NOP(+/+) tissues came to 7.59 pEC50.

B1: [[Cys^14]N/OFQ-NH2]2 (peptide)
peptide: FGGFTGARKSARKCANQ-NH2
modifications: also: homodimer: Cys14-Cys14 disulfide to second copy
In test [3], B1 displayed a pEC50, inhibition of electrically induced contractions of the mouse vas deferens, NOP(+/+) tissues of 6.79 pEC50. In the test with NOP-RLuc, the pEC50, NOP–G protein interaction (BRET, membranes of HEK293 cells with NOP-RLuc and Gβ1-RGFP) worked out at 9.91 pEC50. The molecule also displayed an E max, NOP–G protein interaction (BRET), normalised to N/OFQ-NH2 (E max = 1) with NOP-RLuc (scale: fraction of the maximal effect of N/OFQ-NH2) of 0.8. Moreover, in test [4], the E max, Ca^2+ mobilization in CHO cells with human NOP and Gαqi5 (% over baseline) turned out to be 241; the pEC50, Ca^2+ mobilization in CHO cells with human NOP and Gαqi5 was found to be 9.14 pEC50.

The values above are taken from publication PMC12621184, “Synthesis and Pharmacological Characterization of Nociceptin/Orphanin FQ Dimeric Ligands” (Journal of Medicinal Chemistry, 2025).
